We go through 1 molecule from patent publication US20220288156A1, “TREATMENT” (QUEEN MARY UNIVERSITY OF LONDON, priority 2019, published 2022).

The test system of experiment [1] is AAC model of heart failure. The experiment in a line: Abdominal aortic constriction (AAC) pressure overload heart failure model, echocardiography. The experiment is classed as in vivo, mouse. The note with it: for fractional shortening (FS %): prevention mode. An excerpt: Abdominal AAC, a common experimental procedure, was used to elicit pressure overload-induced heart failure in murine models. AAC provides a time-dependent, reproducible model of HF characterised by a significant rise in left ventricular weight, deleterious myocardial dilation, and a reduction in cardiac inotropy, and rise in myocardial fibrosis. Physiologically this mimics some of the clinical features of human aortic stenosis.
Male C57BL6 mice (Charles River) underwent AAC surgery at 4-5 weeks of age (between 20 and 22 g). Mice were anaesthetised with isoflurane, placed in a supine position on the procedure table, and an incision made along the ventral underbelly, extending from the xiphoid process of the sternum, down to the groin to reveal the abdominal muscle. The abdominal muscle was then cut the same distance along the linea alba to allow easy reattachment of the two halves. The two sides of the abdominal muscles were clipped back to reveal the abdominal gastrointestinal organs, and these were carefully manoeuvred to expose the underlying abdominal aorta. The aorta was cleaned of visceral fats, and carefully separated from parallel vasculature, whilst avoiding any spinal nerves. The abdominal aorta was then constricted using a 6-0 silk suture tied to the width of a 27-gauge needle at a position rostral to the renal artery bifurcation. Great care was taken to ensure the knot remained taut after tying. This was to ensure minimal variability amongst aortic lumen occlusion between animals, and therefore minimise differences in the degree of aortic stenosis. The skin and abdominal muscles were closed with a 6-0 silk suture thread. SHAM operated mice underwent the same operation with the exception of aortic constriction. In an effort to ensure reproducibility amongst AAC surgeries only male mice weighing between 20 and 22 g (correlating to 4-5 weeks of age) were used. Echocardiography was performed up to 3 days prior to surgery, 3 weeks following surgery, and then at 6 (and/or 12 weeks) following surgery. At the experimental end-point, mice were sacrificed and their lungs, kidneys and hearts excised. Hearts were halved longitudinally and either snap frozen in liquid nitrogen (for immunohistochemistry) or stored in an RNA later stabilisation solution (for RT-quantitative PCR) (ThermoFisher Scientific, Hertfordshire, UK).
Cilengitide (Bachem) was stored as a […] solution in saline at −20° C. prior to use, before thawing and serial diluting to an appropriate concentration with sterile saline for use. Injections were administered 3 times per week at the indicated doses intraperitoneally (IP). Low dose Cilengitide (ldCil) is classified as 50 μg/kg (27).
Cardiac function was assessed by transthoracic echocardiography using a VisualSonics Vevo 770 30-MHz transduction probe. Mice were anaesthetised with isoflurane (1.5% in O2), hair removed from their chest with hair removal cream, and then were placed in a supine position onto a warmed pad (46° C.). The chest was covered in ultrasound gel, and the transduction probe was positioned adjacent to the mitral valve, at the tips of the papillary muscles, and images were taken just below this to ensure positional reproducibility. LV internal diameter (LVID) and LV posterior wall thicknesses at diastole (d) and systole (s) were measured from short-axis M-mode images. LV ejection fraction (EF %) was calculated as follows: LVEF %=[(LVIDd)^3−(LVIDs)^3]/(LVIDd)^3×100; LV fractional shortening (FS %) was calculated as follows: LVFS %=(LVIDd−LVIDs)/LVIDd×100. Values were averaged across three beats. All efforts were made to ensure consistency between mouse echocardiographs, including: pad temperature to be maintained at 46° C., isoflurane anaesthesia at 1.5%, oxygen flow at 1.5 L/M, and cardiac function to be measured in the same anatomical location throughout.

In another experiment the test system is Myh7. The experiment is described as follows: Myh7 transcript expression by RT-qPCR, whole heart preparations. The following applies: FIG. 10: whole heart, AAC surgery, ldCil 3 weeks after surgery, normalised to Gapdh. In kind it is in vivo, mouse. An excerpt:
Male C57BL6 mice (Charles River) underwent AAC surgery at 4-5 weeks of age (between 20 and 22 g). Mice were anaesthetised with isoflurane, placed in a supine position on the procedure table, and an incision made along the ventral underbelly, extending from the xiphoid process of the sternum, down to the groin to reveal the abdominal muscle. The abdominal muscle was then cut the same distance along the linea alba to allow easy reattachment of the two halves. The two sides of the abdominal muscles were clipped back to reveal the abdominal gastrointestinal organs, and these were carefully manoeuvred to expose the underlying abdominal aorta. The aorta was cleaned of visceral fats, and carefully separated from parallel vasculature, whilst avoiding any spinal nerves. […] Hearts were halved longitudinally and either snap frozen in liquid nitrogen (for immunohistochemistry) or stored in an RNA later stabilisation solution (for RT-quantitative PCR) (ThermoFisher Scientific, Hertfordshire, UK). […]
Complementary DNA (cDNA) synthesis was carried out using the Applied Biosystems High Capacity cDNA Reverse Transcription (RT) Kit on a thermal cycler as per the manufacturer's instructions. cDNA was made up to a total quantity of either 600 (most mouse tissue and/or cells), or 1000 ng (human heart tissue). […]

Experiment [2] relates to AngII-stressed mouse cardiomyocytes. The experiment in a line: Western blot of TCA cycle enzymes in AngII-stressed cardiomyocytes. The experiment is classed as cell-based. The note with it: Western blot densitometry. As for the experimental part: Following 5 days culture at 37° C., 5% CO2, primary mouse cardiomyocytes were serum starved for 24 h in a 0.5 FBS-DMEM media. On day 6 cells were washed and refed with complete cardiomyocyte growth medium plus or minus 1 μM angiotensin II (Alfa Aesar), and this was repeated on day 7. In tandem to angiotensin II treatment, cells were either treated with vehicle or low dose Cilengitide (20 nM) (Bachem). On 8-day cardiomyocytes were lysed for RNA analysis.
Cardiomyocytes were prepared and treated as above. At the end of the experiment, cells were lysed with RIPA buffer for 10 min on ice and the cell debris pelleted by centrifugation of the lysate at 9300 g for 10 min at 4° C. Protein concentration was determined from the cell supernatant and 20 μg protein loaded onto 10% gels. Membranes were probed for succinate dehydrogenase (Abcam, ab178423), pyruvate dehydrogenase (Abcam, ab131263), aconitase (Abcam, ab129069) and GAPDH (Millipore, AB2302). Densitometric readings of band intensities were obtained using the JmageJ™ software.

Experiment [3] deals with AAC model of heart failure. The experiment in a line: Cardiac hypertrophy in AAC model (WGA cardiomyocyte perimeter, heart:body weight). The experiment is classed as in vivo, mouse. The note with it: intervention mode, AAC surgery. An excerpt: Male C57BL6 mice (Charles River) underwent AAC surgery at 4-5 weeks of age (between 20 and 22 g). Mice were anaesthetised with isoflurane, placed in a supine position on the procedure table, and an incision made along the ventral underbelly, extending from the xiphoid process of the sternum, down to the groin to reveal the abdominal muscle. The abdominal muscle was then cut the same distance along the linea alba to allow easy reattachment of the two halves. The two sides of the abdominal muscles were clipped back to reveal the abdominal gastrointestinal organs, and these were carefully manoeuvred to expose the underlying abdominal aorta. […] Hearts were halved longitudinally and either snap frozen in liquid nitrogen (for immunohistochemistry) or stored in an RNA later stabilisation solution (for RT-quantitative PCR) (ThermoFisher Scientific, Hertfordshire, UK).
5 μm snap-frozen sections were fixed in 10% acetone, washed in phosphate buffered saline, PBS, blocked in 5% normal goat serum/PBS for 1 h at room temperature and incubated with WGA directly conjugated to Alexa Fluor 488 (Invitrogen) (1:100) in blocking buffer (5% normal goat serum/PBS) for 2 h at room temperature. […] Images were taken with a Zeiss Axioplan microscope, and the cardiomyocyte size was analysed with ImageJ™ software. 100-200 cells per heart were measured to determine cardiomyocyte size.

Setting [4] is: intervention mode, AAC surgery, ldCil 50 μg/kg 3 times a week from 3-6 weeks post-surgery.

The structures appear in SMILES notation.

Turning to `CC(C)[C@H]1C(=O)N[C@@H](CCCN=C(N)N)C(=O)NCC(=O)N[C@@H](CC(=O)O)C(=O)N[C@H](Cc2ccccc2)C(=O)N1C` [Cilengitide, c(f*VRGD)], the “fractional shortening over time” value in experiment [1] (AAC surgery, ldCil 3-6 weeks post-surgery, between 3 and 6 weeks) is reported as “elevated fractional shortening significantly”. In addition, the “persistence of fractional shortening rescue after treatment cessation” value in experiment [1] (AAC surgery, ldCil 3-6 weeks post-surgery, followed to 12 weeks) is listed as “sustained up until 12 weeks post-surgery”. The “FS % over time” value in experiment [1] (SHAM surgery, ldCil 3-6 weeks post-surgery, between 3 and 6 weeks or 6 and 12 weeks) is given as “not significantly altered”. For the same molecule, the “endpoint FS %” value in experiment [1] (setting [4]) is reported as “rescued”. Further, the “endpoint ejection fraction (EF %)” value in experiment [1] (setting [4]) is recorded as “rescued”. In addition, in experiment [1] (setting [4]), the “endpoint left ventricular internal diameter during systole (LVID)” value is listed as “rescued”. For the same molecule, the “fractional shortening (FS %)” value in experiment [1] (AAC surgery, 50 μg/kg IP 3 times a week for 7 weeks immediately after surgery, endpoint 7 weeks) is reported as “restored fractional shortening to that observed in SHAM treated mice”; in experiment [1] (AAC surgery, 500 μg/kg IP 3 times a week for 7 weeks), “but not 500 μg/kg, Cilengitide corrects the fractional shortening effects”; in experiment [1] (SHAM surgery, 50 μg/kg IP 3 times a week for 7 weeks), “no significant effect”. Moreover, the Myh7 levels result in the experiment with Myh7 was “restored Myh7 levels back to untreated levels”. Further, in experiment [2], the “pyruvate dehydrogenase protein expression” value was “rescues the elevated expression”. The “heart:body weight ratio” value in experiment [3] was “blunted increases”. Also, the “cardiomyocyte perimeter (WGA stained sections)” value in experiment [3] (compared with vehicle) is listed as “reduced”.
